Measurements: patent US20130101634A1, “COMPOSITIONS AND METHODS FOR REDUCING MICROBIAL OVERGROWTH IN THE SMALL INTESTINES” (DEERLAND ENZYMES, INC., priority 2011, published 2013)

Experiments:
Bacteroides fragilis = experiment: Growth curve (O.D. 600 over time) in nutrient broth; format: cell-based; conditions: 1 mg/ml in nutrient broth, alone or with 1 mg/ml EDTA, 37° C., FIGS. 2, 4, 6
Description: (§1) Growth Curves Since bacteria grow exponentially, it is useful to plot the logarithm of the relative population size [y=ln(NIN0)] against time. Frozen permanents of each strain were streaked for single colonies using nutrient agar plates warmed prior to use. Single bacterial cells were restreaked on a nutrient agar plate at 37° C. for 24 h to 72 h depending on strain. Cells of several well-grown colonies on the plate were added to 50 ml of nutrient broth with shaking at 37° C. until the culture reached the desired optical density. Ingredients of interest were slowly added while stirring at 37° C. […] Samples were taken at various time points and the optical density of the culture was obtained at 600 nm. All experiments were replicated twice.

E. coli = experiment: as above; format: cell-based; conditions: 1 mg/ml in nutrient broth, alone or with 1 mg/ml EDTA or citrate, 37° C., FIGS. 1, 3, 5
Description: as §1

Substance	cell growth (O.D. 600 as a function of time) (Bacteroides fragilis)	cell growth (O.D. 600 as a function of time) (E. coli)
nisin	cell growth is not totally eliminated and cell culture will recover	cell growth is not totally eliminated and cell culture will recover
lysozyme	cell growth is not totally eliminated and cell culture will recover	cell growth is not totally eliminated and cell culture will recover
